Several values for one entry are separate records, joined by “and”; a condition that tells them apart may be missing. Equal entries are not always repeated.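 The compound was tested at five concentrations on cells cultured in 96-well plates, with a 48-hour exposure period. GI50: concentration for 50% inhibition of growth. TGI marks complete inhibition of growth.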
How the values were obtained:
Test in all cases: inhibition of tumour cell growth, NCI panel, 48 h
[1] = tested on: A549 NSCLC
[2] = tested on: ACHN renal
[3] = tested on: BT-549 breast
[4] = tested on: HS 578T breast
[5] = tested on: HT29 colon
[6] = tested on: MCF7 breast
[7] = tested on: NCI-H460 lung
[8] = tested on: PC-3 prostate
[9] = tested on: TK-10 renal
[10] = tested on: U251 CNS

Structure (SMILES)	TGI [1]	TGI [2]	TGI [3]	TGI [4]	TGI [5]	TGI [6]	TGI [7]	TGI [8]	TGI [9]	TGI [10]	GI50 [5]	GI50 [8]	GI50 [10]
OC(CC(c1ccccc1)c1ccc(Cl)cc1)c1ccc(Cl)cc1 (stereo not drawn)	> 100 µM	77.6 µM	> 100 µM	> 100 µM	> 100 µM	86.2 µM	> 100 µM	> 100 µM	> 100 µM	> 100 µM			
c1ccc2c(c1)CC1c3[nH]c4ccccc4c3CCN21 (stereo not drawn)	> 10 µM	> 10 µM	> 10 µM	> 10 µM	> 10 µM	> 10 µM	> 10 µM	> 10 µM	> 10 µM	> 10 µM			
Cc1nc2c(n1Cc1ccc(Cl)cc1)C(=O)c1ccccc1C2=O	> 75 µM	> 75 µM			> 75 µM		> 75 µM		> 75 µM	> 75 µM			
COc1ccccc1C(=O)c1c(N2CCCCC2)c(=O)c1=O	> 100 µM	> 100 µM	> 100 µM		> 100 µM	> 100 µM	> 100 µM	> 100 µM	> 100 µM	> 100 µM			
CC(=O)O[C@]12CCCCCCC1C1(O)C(O)CCC[C@H]12 (stereo partly drawn)	> 100 µM	> 100 µM			> 100 µM		> 100 µM		> 100 µM	> 100 µM			
CC1=NNC(N)=N/C1=C/C(Sc1ccc(Cl)cc1)c1cccs1 (stereo not drawn)	38.8 µM	42.5 µM	> 100 µM	> 100 µM	25.4 µM	20.4 µM	30.5 µM	27.8 µM	> 100 µM	> 100 µM			
O=C1/C(=C/c2cccc(Oc3ccccc3)c2)N=C(c2ccccc2)N1c1nc2ccc(Sc3ccccc3)cc2[nH]1	> 100 µM	> 100 µM	55 µM	> 100 µM	63.2 µM	> 100 µM	64 µM	> 100 µM	68.4 µM	> 100 µM			
O=S1(=O)NNC(=NCc2ccc(F)cc2)c2ccccc21	> 100 µM	> 100 µM	> 100 µM	49.2 µM	> 100 µM	> 100 µM	> 31.6 µM			> 83.4 µM			
CC(=O)N[C@@H](Cc1ccc(O)cn1)C(=O)NCc1ccc2c(c1)OCO2	> 100 µM	> 100 µM	> 100 µM	> 100 µM	> 100 µM	> 100 µM	> 100 µM	> 100 µM	> 100 µM	> 100 µM			
Cc1ncc([N+](=O)[O-])n1CCN=[N+]=[N-]	> 100 µM	> 100 µM	> 100 µM	> 100 µM	> 100 µM	> 100 µM	> 100 µM	> 100 µM	> 100 µM	> 100 µM			
Oc1ccc(-c2c3c(nc4c2CCc2ccc(Br)cc2-4)-c2cc(Br)ccc2CC3)cc1	40.8 µM	45.2 µM	43.1 µM			43.1 µM	53.2 µM	31.9 µM	45.4 µM	34.2 µM			
O=C1NC(=O)/C(=C\c2ccncc2)N1	> 100 µM	> 100 µM	> 100 µM		> 100 µM	> 100 µM	> 100 µM	> 100 µM	> 100 µM	> 100 µM			
COc1ccc(C2CC(c3c(C)nn(-c4ccccc4)c3-c3ccc(C)cc3O)=NN2c2ccccc2)cc1 (stereo not drawn)	> 100 µM	> 67.4 µM	> 100 µM	> 100 µM	> 44 µM	> 100 µM	> 41.7 µM	> 100 µM	> 100 µM	> 100 µM			
Cc1cc(S(=O)(=O)Nc2n[nH]c(Nc3ccccc3)n2)c(S)cc1Cl	> 10 µM	> 10 µM	> 10 µM	> 10 µM	> 10 µM	> 10 µM	> 10 µM	> 10 µM	> 10 µM	> 10 µM			
COc1cc(C2C(Cl)C(=O)N2c2ccc(Br)cc2)cc(I)c1O (stereo not drawn)	> 100 µM	> 100 µM	> 100 µM	> 100 µM	> 100 µM	> 100 µM	> 100 µM	> 100 µM	> 100 µM	> 100 µM			
O=C1c2cc([N+](=O)[O-])ccc2NC2C(O)c3ccccc3N12 (stereo not drawn)	> 100 µM	80.7 µM	61.4 µM	74.3 µM	> 100 µM	> 100 µM	97 µM	> 100 µM	58.1 µM	> 100 µM			
CCCCn1cc(C(=O)O)c(=O)c2c3sccc3ccc21	> 100 µM	> 100 µM	> 100 µM	> 100 µM	> 100 µM	> 100 µM	> 100 µM	> 100 µM	> 100 µM	> 100 µM			
c1ccc2c3c(ccc2c1)CSCc1ccc2ccccc2c1-3	> 100 µM	> 100 µM	> 100 µM	> 100 µM	> 100 µM	> 100 µM		> 100 µM	> 100 µM	> 100 µM			
COc1cc2c3c(n(CCCNCCO)c(=O)c2cc1OC)-c1cc2c(cc1C3=O)OCO2		0.176 µM and 0.369 µM	7.97 µM	27.3 µM	0.589 µM	0.155 µM and 0.113 µM	0.23 µM and 0.0797 µM		28.5 µM	1.09 µM and 1.62 µM	0.0502 µM	10.2 µM	0.0191 µM and < 0.0383 µM
O=C1CSC2(CC(/C=C/C=C/c3ccccc3)=NN2c2cccc(S(=O)(=O)O)c2)N1c1nc2ccccc2s1 (stereo not drawn)	> 100 µM	> 100 µM	> 100 µM		> 100 µM	> 100 µM	> 100 µM	> 100 µM	> 100 µM	74.4 µM			
Cc1ccc2ccccc2c1CC1S(=O)(=O)OCCOS1(=O)=O	29.6 µM	28.8 µM	25.7 µM		27.1 µM	23.1 µM	27.4 µM	24.3 µM	31.1 µM	24.7 µM			
CCCCCCCCCCCCC(=O)NCC(=O)NC(Cc1ccccc1)C(=O)Oc1ccc([N+](=O)[O-])cc1 (stereo not drawn)	> 100 µM	> 100 µM	> 100 µM	> 100 µM	> 100 µM	> 100 µM	> 100 µM	> 100 µM	> 100 µM				

Reference: PubChem BioAssay (NCI)
